Data as given in paper PMC4423475, “Structure-based discovery of the first non-covalent inhibitors of Leishmania major tryparedoxin peroxidase by high throughput docking” (Scientific Reports, 2015).

Tests used:
[1] = biological target: T1, horseradish peroxidase (HRP) (Armoracia rusticana, UniProt P00433); test: HRP inhibition control (compounds tested for their ability to inhibit HRP); assay type: biochemical; conditions: compound at 100 μM; for HRP inhibition: first series (HTD hits)
T1 sequence (P00433 31-353): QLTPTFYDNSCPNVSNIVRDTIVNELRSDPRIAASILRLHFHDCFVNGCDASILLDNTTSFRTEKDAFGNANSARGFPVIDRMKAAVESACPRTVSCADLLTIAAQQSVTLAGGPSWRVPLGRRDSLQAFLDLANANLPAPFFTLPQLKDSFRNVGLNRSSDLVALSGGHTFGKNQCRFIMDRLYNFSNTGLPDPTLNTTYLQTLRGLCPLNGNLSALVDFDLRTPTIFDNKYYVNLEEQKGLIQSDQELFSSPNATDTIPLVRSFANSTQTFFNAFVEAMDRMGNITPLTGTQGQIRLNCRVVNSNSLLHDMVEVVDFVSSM
Protocol: (§1) The compounds ability to inhibit TXNPx has been evaluated by simply measuring the following ratio: ΔA/ΔA0 where ΔA0 is the difference in absorbance between HRP and compound I (ΔA0 = 0.04) and ΔA is the difference in absorbance between HRP and compound I in the presence of LmTXNPx and 100 μM inhibitors. All the compounds have been previously tested for their ability to inhibit HRP at a concentration of 100 μM.

LmTXNPx [2] = biological target: T2, LmTXNPx (Leishmania major, UniProt Q4QF76); test: Surface plasmon resonance, immobilized LmTXNPx; assay type: binding; conditions: SPR, 1:1 steady-state affinity model
Protocol: SPR experiments were carried out using a SensiQ Pioneer system (SensiQ, ICxNomadics Inc.). The interaction of the immobilized protein with the analytes was detected by mass concentration-dependent changes of the refractive index on the sensor chip surface. The changes in the observed SPR signal are expressed as Resonance Units (RU). Typically, a response change of 1000 RU corresponds to a change in the surface concentration on the sensor chip of about 1 ng of protein per mm^2.
The sensor chips (COOH5 SensiQ) were chemically activated by injection of 250 μl of a 1:1 mixture of N-hydroxysuccinimide (50 mM) and N-ethyl-N-(3-dimethylaminopropyl)carbodiimide (200 mM) at a flow rate of 25 μl/min. Recombinant LmTXNPx was immobilized on the activated sensor chip via amine coupling. The reaction was carried out at a rate of […] in 20 mM sodium acetate at pH 4.5; the remaining ester groups were blocked by injecting 100 μL of 1 M ethanolamine hydrochloride. Recombinant LmTXNPx was captured to approximately 2000 RU. The analytes were dissolved at a concentration of 10 mM or 20 mM in dimethylsulfoxide (DMSO), and diluted 1:100 in HEPES-buffered saline (HBS: 10 mM HEPES, pH 7.4; 150 mM NaCl; 0.005% surfactant P20).
FastStep injections of samples (100 or 200 μM analytes in HBS + 1% DMSO), and reference buffer (HBS + 1% DMSO) were performed: either the inhibitor and reference buffer were automatically diluted in HBS and injected by 7 serial doubling steps (step contact time = 15 s, nominal flow rate = 200 μl/min). The following analytes were injected: 0–17 s: analyte concentration = 3.12 μM; 17–33 s: 6.25 μM; 33–48 s: 12.5 μM; 48–62 s: 25 μM; 63–78 s: 50 μM; 78–93 s: 100 μM; 94–100 s: 200 μM; for each injection, a maximal RU value was obtained. In control experiments, the sensor chip was treated as described above in the absence of immobilized protein.
Each sensorgram is the average of three different experiments. Sensorgrams were subjected to global analysis using QDat software 2.2.0.23, and for each analyte concentration a % Response was calculated, allowing a local Rmax fit (according to the molecular weight of each compound) and displaying as a response relative to the Rmax. % Response vs. analyte concentration was plotted and a KD value was calculated for each analyte by fitting a simple 1:1 steady-state affinity model to the data.

LmTXNPx [3] = biological target: T2, LmTXNPx; test: HRP-H2O2 competition assay (LmTXNPx inhibition assay); assay type: biochemical
Description: To determine the ability of the selected compounds to inhibit the catalytic activity of LmTXNPx, we used the horseradish peroxidase (HRP)-H2O2 competition assay developed by Augusto and co-workers[16]. HRP is well known to react with H2O2 in a two-electron oxidation process that leads to the formation of HRP compound I (HRP-I), a stable HRP oxidized intermediate that can be followed at 398 nm. Reduced LmTXNPx competes with HRP for the H2O2 substrate, leading to a decrease in HRP-I yield that is proportional to LmTXNPx concentration. The addition of LmTXNPx inhibitors leads to a decrease in free LmTXNPx concentration and consequent increase in the HRP-I yield.
Competition kinetics have been performed for determining the activity of the compounds selected by HTD. The ability of the compounds to inhibit the H2O2 reduction by LmTXNPx has been determined by competition approach utilizing the well-known reactivity of H2O2 with horseradish peroxidase (HRP)[16][20][26]. HRP is a heme-containing peroxidase, which uses hydrogen peroxide (by reducing it to water) to oxidize different organic substrates to free radicals. The reaction takes place in three steps: • PFe(III) + H2O2 → P^·+Fe(IV) = O + H2O • P^·+Fe(IV) = O + X → X^• + PFe(IV) = O • PFe(IV) = O + X + 2H^+ → PFe(III) + X^· + H2O
Where PFe(III) is HRP (the native protein), P^·+Fe(IV) = O is the HRP compound I (HRP-I), PFe(IV) = O is the HRP compound II (HRP-II) and X is a generic substrate. The formation of HPR-I results in a change in light absorption in the visible range (Δε403 nm = 5.4 × 10^4 M^−1cm^−1). For kinetic studies the HRP oxidation is monitored at 398 nm (Δε398 nm = 4.2 × 10^4 M^−1cm^−1) instead of 403 nm (wavelength corresponding to the maximum of HRP absorbance) in order to avoid interferences arising from HRP-I reduction to HRP-II. This method is usually used to determine the second order rate constant of 2Cys- Peroxiredoxin reaction with hydrogen peroxide and peroxinitrite.
Thus, H2O2-mediated HRP oxidation is a two-electron oxidation process, leading to the formation of HRP-I, followed at 398 nm. The addition of increasing concentrations of pre-reduced LmTXNPx led to a lower yield in HRP-I since two reactions take place in solution: [drawing 1] [drawing 2]
Where I indicates the inhibitor and LmTXNPx-I indicates the complex between LmTXNPx and the inhibitor. The addition of active LmTXNPx inhibitors led to a decrease in the free LmTXNPx and the consequent recover in the HRP-I yield and therefore to a partial or total recover of the ΔA.
The HRP-based indirect kinetic assays to test the inhibitors was performed in the following way: HRP 2 μM was exposed to H2O2 0.25 μM in sodium phosphate buffer pH 7.4 and 25°C, either in the absence or in the presence of the indicated concentrations of reduced LmTXNPx and in the absence or in the presence of inhibitors. The relative changes in absorbance at 398 nm (ΔA/ΔA0), reflecting HRP-I formation, were determined.
as §1

[4] = first series (HTD hits), HRP 2 µM, H2O2 0.25 µM, 2.5 µM LmTXNPx, 100 µM inhibitors, pH 7.4, 25 °C
[5] = residual activity of HRP, HRP 2 μM, H2O2 0.25 μM, 2.5 μM LmTXNPx, 100 μM inhibitors, sodium phosphate buffer pH 7.4, 25°C

T2 sequence (Q4QF76 entry or part of it): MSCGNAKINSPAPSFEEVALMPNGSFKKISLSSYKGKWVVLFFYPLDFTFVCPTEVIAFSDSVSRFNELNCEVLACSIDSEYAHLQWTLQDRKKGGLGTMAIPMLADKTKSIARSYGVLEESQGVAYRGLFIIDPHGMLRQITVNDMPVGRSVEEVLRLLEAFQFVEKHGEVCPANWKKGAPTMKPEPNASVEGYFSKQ

With `COc1cc2cc(CN(Cc3ccc(F)cc3)Cc3nnnn3Cc3ccccc3)c(=O)[nH]c2cc1OC` [Compound 1, 3-((((1-Benzyl-1H-tetrazol-5-yl)methyl)(4-fluorobenzyl)amino)methyl)-6,7-dimethoxyquinolin-2(1H)-one] the HRP inhib. [1] was “No”, the HRP inhibition [1] was “No” and the Kd (LmTXNPx [2]) was 290 ± 13 µM. For the same compound, the “(ΔA/ΔA0) × 100” value (LmTXNPx [3]; [4]) was 47 ± 6% and the “(ΔA/ΔA0) × 100” value (LmTXNPx [3]; [5]) was 52 ± 10%.
For `COc1cc2cc(CN(Cc3ccc(F)cc3)Cc3nnnn3Cc3cccc([N+](=O)[O-])c3)c(=O)[nH]c2cc1OC` [Compound 2, 3-(((4-Fluorobenzyl)((1-(3-nitrobenzyl)-1H-tetrazol-5-yl)methyl)amino)methyl)-6,7-dimethoxyquinolin-2(1H)-one], the HRP inhib. [1] was “No”, the Kd (LmTXNPx [2]) was 172 ± 6 µM and the “(ΔA/ΔA0) × 100” value (LmTXNPx [3]; [5]) was 37 ± 9%.
With `COc1cc2cc(CN(Cc3ccc(F)cc3)Cc3nnnn3Cc3cccc(N)c3)c(=O)[nH]c2cc1OC` [Compound 3, 3-((((1-(3-Aminobenzyl)-1H-tetrazol-5-yl)methyl)(4-fluorobenzyl)amino)methyl)-6,7-dimethoxyquinolin-2(1H)-one] the HRP inhib. [1] was “No”, the Kd (LmTXNPx [2]) was 354 ± 12 µM and the “(ΔA/ΔA0) × 100” value (LmTXNPx [3]; [5]) was 44 ± 6%.
Compound `COc1cc2cc(CN(Cc3ccc(F)cc3)Cc3nnnn3Cc3cccc(N(C)C)c3)c(=O)[nH]c2cc1OC` [Compound 4, 3-((((1-(3-(Dimethylamino)benzyl)-1H-tetrazol-5-yl)methyl)(4-fluorobenzyl)amino)methyl)-6,7-dimethoxyquinolin-2(1H)-one] has a Kd (LmTXNPx [2]) of 156 ± 5 µM.
In the case of `COc1cc2cc(CN(Cc3ccc(F)cc3)Cc3nnnn3Cc3cccc(I)c3)c(=O)[nH]c2cc1OC` [Compound 5, 3-(((4-Fluorobenzyl)((1-(3-iodobenzyl)-1H-tetrazol-5-yl)methyl)amino)methyl)-6,7-dimethoxyquinolin-2(1H)-one], the HRP inhib. [1] is reported as “No”, the Kd (LmTXNPx [2]) is reported as 281 ± 11 µM and the “(ΔA/ΔA0) × 100” value (LmTXNPx [3]; [5]) is reported as 71 ± 6%.
For `COc1cc2cc(CN(Cc3ccc(F)cc3)Cc3nnnn3Cc3cccc(-c4ccccc4)c3)c(=O)[nH]c2cc1OC` [Compound 6, 3-((((1-([1,1′-Biphenyl]-3-ylmethyl)-1H-tetrazol-5-yl)methyl)(4-fluorobenzyl)amino)methyl)-6,7-dimethoxyquinolin-2(1H)-one], the HRP inhib. [1] was “No”, the Kd (LmTXNPx [2]) was 52 ± 1 µM and the “(ΔA/ΔA0) × 100” value (LmTXNPx [3]; [5]) was 75 ± 9%.
For `COc1ccc2[nH]c(=O)c(CN(Cc3ccc(F)cc3)Cc3nnnn3Cc3ccccc3)cc2c1` [Compound 7, 3-((((1-Benzyl-1H-tetrazol-5-yl)methyl)(4-fluorobenzyl)amino)methyl)-6-methoxyquinolin-2(1H)-one], the HRP inhib. [1] was “No”, the Kd (LmTXNPx [2]) was 47 ± 1 µM and the “(ΔA/ΔA0) × 100” value (LmTXNPx [3]; [5]) was 60 ± 7%.
For `O=c1[nH]c2ccccc2cc1CN(Cc1ccc(F)cc1)Cc1nnnn1Cc1ccccc1` [Compound 8, 3-((((1-Benzyl-1H-tetrazol-5-yl)methyl)(4-fluorobenzyl)amino)methyl)quinolin-2(1H)-one], the HRP inhib. [1] was “No”, the Kd (LmTXNPx [2]) was 104 ± 4 µM and the “(ΔA/ΔA0) × 100” value (LmTXNPx [3]; [5]) was 45 ± 15%.
In the case of `COc1cc2cc(CN(Cc3ccccc3)Cc3nnnn3Cc3ccccc3)c(=O)[nH]c2cc1OC` [Compound 9, 3-((((1-Benzyl-1H-tetrazol-5-yl)methyl)benzylamino)methyl)-6,7-dimethoxyquinolin-2(1H)-one], the HRP inhib. [1] is reported as “Yes” and the Kd (LmTXNPx [2]) is reported as 74 ± 3 µM.
`COc1cc2cc(CN(Cc3ccc(Cl)cc3)Cc3nnnn3Cc3ccccc3)c(=O)[nH]c2cc1OC` [Compound 10, 3-((((1-Benzyl-1H-tetrazol-5-yl)methyl)(4-chlorobenzyl)amino)methyl)-6,7-dimethoxyquinolin-2(1H)-one] was tested, and the HRP inhib. [1] was “Yes” and the Kd (LmTXNPx [2]) was 63 ± 3 µM.
For `COc1cc2cc(CN(Cc3ccc(Br)cc3)Cc3nnnn3Cc3ccccc3)c(=O)[nH]c2cc1OC` [Compound 11, 3-((((1-Benzyl-1H-tetrazol-5-yl)methyl)(4-bromobenzyl)amino)methyl)-6,7-dimethoxyquinolin-2(1H)-one], the HRP inhib. [1] was “No”, the Kd (LmTXNPx [2]) was 112 ± 4 µM and the “(ΔA/ΔA0) × 100” value (LmTXNPx [3]; [5]) was 37 ± 20%.
With `COc1cc2cc(CN(Cc3nnnn3Cc3ccccc3)CC34CC5CC(CC(C5)C3)C4)c(=O)[nH]c2cc1OC` [Compound 12, 3-((((1-Benzyl-1H-tetrazol-5-yl)methyl)(1-adamantylmethyl)amino)methyl)-6,7-dimethoxyquinolin-2(1H)-one] the HRP inhib. [1] was “No”, the Kd (LmTXNPx [2]) was 39 ± 1 µM and the “(ΔA/ΔA0) × 100” value (LmTXNPx [3]; [5]) was 93 ± 6%.
In the case of `O=C(Nc1cc(C(=O)Nc2ccc(S(=O)(=O)[O-])c3cc(S(=O)(=O)[O-])cc(S(=O)(=O)[O-])c23)cc(C(=O)Nc2ccc(S(=O)(=O)[O-])c3cc(S(=O)(=O)[O-])cc(S(=O)(=O)[O-])c23)c1)Nc1cc(C(=O)Nc2ccc(S(=O)(=O)[O-])c3cc(S(=O)(=O)[O-])cc(S(=O)(=O)[O-])c23)cc(C(=O)Nc2ccc(S(=O)(=O)[O-])c3cc(S(=O)(=O)[O-])cc(S(=O)(=O)[O-])c23)c1.[Na+].[Na+].[Na+].[Na+].[Na+].[Na+].[Na+].[Na+].[Na+].[Na+].[Na+].[Na+]` [NF864], the HRP inhibition [1] is reported as “No” and the “(ΔA/ΔA0) × 100” value (LmTXNPx [3]; [4]) is reported as 16 ± 6%.
`CCOC(=O)Cc1csc(NC(=O)CSc2nc(C(C)C)nc3sc(C)c(C)c23)n1` [NF2013] was tested, and the HRP inhibition [1] was “Yes”.
